What is called IC50 is the point on the concentration scale where inhibition reaches its midpoint.

Drawing on US20170260226A1, “3-NITROGEN OR SULPHUR SUBSTITUTED OESTRA-1,3,5(10),16-TETRAENE AKR1C3 INHIBITORS” (BAYER PHARMA AKTIENGESELLSCHAFT, priority 2014, published 2017), this text covers IC50 for 16 compounds.

The target of assay [1] is T1, AKR1C3 (Homo sapiens, UniProt P42330).
T1 sequence (P42330 1-323): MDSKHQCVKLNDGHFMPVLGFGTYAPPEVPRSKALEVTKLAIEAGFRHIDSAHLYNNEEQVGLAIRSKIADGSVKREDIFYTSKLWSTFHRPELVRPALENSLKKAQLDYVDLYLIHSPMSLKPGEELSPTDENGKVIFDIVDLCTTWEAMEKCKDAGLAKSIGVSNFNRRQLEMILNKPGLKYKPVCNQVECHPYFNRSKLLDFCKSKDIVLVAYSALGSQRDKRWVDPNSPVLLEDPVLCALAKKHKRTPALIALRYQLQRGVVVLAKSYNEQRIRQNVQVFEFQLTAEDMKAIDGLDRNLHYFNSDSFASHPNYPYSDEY
The experiment in a line: AKR1C3 enzyme inhibition assay (coumberone to coumberol fluorescence). Set-up: GST (cleaved yes); made in house; host or cells: E. coli. In kind it is biochemical. Particulars: mean values; 10 μM NADPH, 0.3 μM coumberone, 3 h at room temperature. The protocol:
The AKR1C3-inhibitory action of the substances of this invention was measured in the AKR1C3 assay described in the paragraphs which follow.
Essentially, the enzyme activity is measured by quantifying the coumberol formed from coumberone (Halim, M., Yee, D., J., and Sames, D., J. A., M. (2008). Chem Soc 130, 14123-14128 and Yee, D., J., Balsanek, V., Bauman, D., R., Penning, T., M., and Sames, D. (2006). Proc Natl Acad Sci USA, 103, 13304-13309). In this assay, the increase in the highly fluorescent coumberol can be determined by NADPH (nicotinamide adenine dinucleotide phosphate)-dependent reduction of the nonfluorescent coumberone by AKR1C3.
The enzyme used was recombinant human AKR1C3 (aldo-keto reductase family 1 member C3) (GenBank Accession No. NM_003739). This was expressed as the GST (glutathione S-transferase) fusion protein in E. coli and purified by means of glutathione-Sepharose affinity chromatography. The GST was removed by thrombin digestion with subsequent size exclusion chromatography (Dufort, I., Rheault, P., Huang, X., F., Soucy, P., and Luu-The, V. (1999). Endocrinology,140, 568-574).
For the assay, 40-50 nl of a 100-fold concentrated solution of the test substance in DMSO were pipetted into a black low-volume 384-well microtitre plate (Greiner Bio-One, Frickenhausen, Germany), 2-2.5 μl of a solution of AKR1C3 in assay buffer [50 mM potassium phosphate buffer pH 7, 1 mM DTT, 0.0022% (w/v) Pluronic F-127, 0.01% BSA (w/v) and protease inhibitor cocktail (complete, EDTA-free Protease Inhibitor Cocktail from Roche)] were added and the mixture was incubated for 20 min, in order to enable preliminary binding of the substances to the enzyme prior to the enzyme reaction. Then the enzyme reaction was started by adding 2-2.5 μl of a solution of NADPH and coumberone in assay buffer (final assay concentration was 10 μM NADPH and 0.3 μM coumberone) and the resulting mixture was incubated at room temperature for 3 h. Typical concentrations were depending on the linear range of the enzyme reaction during the reaction time about 1 nM. The reaction was stopped by adding 2 μl of a stop solution consisting of the AKR1C3 inhibitor EM-1404 to a final concentration of 1 μM. Subsequently, the fluorescence of coumberol was measured at 520 nm (excitation at 380 nm) with a suitable measuring instrument (Pherastar, BMG). […] The data were normalized (enzyme+coumberon substrate in assay buffer=0% inhibition; coumberone substrate only in assay buffer=100% inhibition). Substances were usually tested at 11 different concentrations on the same microtiter plate in a range between 96.8 pM to 20 μM (20 μM, 5.9 μM, 1.7 μM, 0.5 μM, 0.15 μM, 44 nM, 12.9 nM, 3.8 nM, 1.1 nM, 0.3 nM and 96.8 pM). The dilutions were carried out on a 100 fold concentrated solution by serial dilution in duplicates. From the obtained data IC50 values were calculated by a 4-parameter fit.

Assay [2] concerns the target T1, AKR1C3. The assay can be described thus: AKR1C3 inhibition in a cell-based system (HEK293 cells transfected with AKR1C3 expression plasmid, coumberon substrate). Also noted: expressed in transfected cells; host or cells: HEK293 cells (ATCC). Particulars: mean values; HEK293 cells transfected with AKR1C3, coumberon 6×10^−6M, 3 h; read-out: Cellular AKR1C3 inhibition IC50. How it is done: The inhibition of AKR1C3 by the substances described in this invention was measured in a cell-based assay using coumberon as the substrate for AKR1C3 (Halim, M., Yee, D., J., and Sames, D., J. (2008). Am Chem Soc, 130, 14123-14128 and Yee, D., J., Balsanek, V., Bauman, D., R., Penning, T., M., and Sames, D. (2006), Proc Natl Acad Sci USA 103, 13304-13309) (cf. Example 48).
The cell system used was HEK293 cells (ATCC, USA) (DMEM/F12, 10% FCS, 2 mM L-Glutamine, PSG). The cells were transfected with an AKR1C3 expression plasmid (pCMV6-AC-AKR1C3, GenBank Accession No. NM 003739.4), harvested after 24 hours and subsequently frozen. For assays, the frozen cells were thawed in assay medium (DMEM/F12 w/o phenolred, 0.005% Tween, 10% FCS, 2 mM L-Glutamine, PSG). Cells were seeded at 2500 cells/well into 384-well low volume or 1536-well plates (Greiner Bio-One, Frickenhausen, Germany) that contained 40-50 nl of a 100 fold concentrated compound solution in DMSO. After incubation at room temperature for 15 minutes, coumberon in PBS was added to a final concentration of 6×10^−6M. Following a 3 h incubation at room temperature, the reaction was stopped by lysing the cells with 0.4% Triton X-100. Coumberol fluorescence intensity was measured at 520 nm (excitation 380 nm) with a suitable measuring instrument (Pherastar, BMG). […] The data were normalized (transfected cells+coumberon=0% inhibition; no cells+coumberone=100% inhibition). Substances were usually tested at 11 different concentrations on the same microtiter plate in a range between 96.8 pM to 20 μM (20 μM, 5.9 μM, 1.7 μM, 0.5 μM, 0.15 μM, 44 nM, 12.9 nM, 3.8 nM, 1.1 nM, 0.3 nM and 96.8 pM). The dilutions were carried out on a 100 fold concentrated solution by serial dilution in duplicates. From the obtained data IC50 values were calculated by a 4-parameter fit.

For `CN(CCC(=O)O)S(=O)(=O)c1ccc2c(c1)CC[C@@H]1[C@@H]2CC[C@]2(C)C(c3cncnc3)=CC[C@@H]12` [Example 05, N-methyl-N-{[17-(pyrimidin-5-yl)estra-1(10),2,4,16-tetraen-3-yl]sulfonyl}-beta-alanine], the concentration for half-maximal inhibition (IC50) against AKR1C3 [1] amounted to 0.0917 µM; at AKR1C3 [2], 2.71 µM.

For `Cc1cncc(C2=CC[C@H]3[C@@H]4CCc5cc(S(=O)(=O)CCCC(=O)O)ccc5[C@H]4CC[C@]23C)c1` [Example 17, 4-{[17-(5-methylpyridin-3-yl)estra-1,3,5(10),16-tetraen-3-yl]sulfonyl}butanoic acid], the IC50 at AKR1C3 [1] is 0.0016 µM; on AKR1C3 [2], 0.17 µM.

With `CN(C(=O)CCc1nn[nH]n1)c1ccc2c(c1)CC[C@@H]1[C@@H]2CC[C@]2(C)C(c3cncc(F)c3)=CC[C@@H]12` [Example 33, N-[17-(5-fluoropyridin-3-yl)estra-1(10),2,4,16-tetraen-3-yl]-N-methyl-3-(2H-tetrazol-5-yl)propanamide], the concentration for half-maximal inhibition (IC50) was 0.0025 µM on AKR1C3 [1] and 0.26 µM at AKR1C3 [2].

With `C[C@]12CC[C@@H]3c4ccc(S(C)(=O)=O)cc4CC[C@H]3[C@@H]1CC=C2c1cncc(F)c1` [Example 08, 17-(5-fluoropyridin-3-yl)-3-(methylsulfonyl)estra-1(10),2,4,16-tetraene], the IC50 on AKR1C3 [1] was determined as 0.0041 µM; on AKR1C3 [2] it was 0.08 µM.

With `C[C@]12CC[C@@H]3c4ccc(NC(=O)CCC(=O)O)cc4CC[C@H]3[C@@H]1CC=C2c1cncnc1` [Example 25, 4-oxo-4-{[17-(pyrimidin-5-yl)estra-1(10),2,4,16-tetraen-3-yl]amino}butanoic acid], the IC50 against AKR1C3 [1] turned out to be 0.313 µM; on AKR1C3 [2], 8.34 µM.

On to `Cc1ccc(C2=CC[C@H]3[C@@H]4CCc5cc(S(=O)(=O)CCCC(=O)O)ccc5[C@H]4CC[C@]23C)cn1` [Example 15, 4-{[17-(6-methylpyridin-3-yl)estra-1,3,5(10),16-tetraen-3-yl]sulfonyl}butanoic acid], for which the values for the IC50 at AKR1C3 [1] and at AKR1C3 [2] were 0.073 µM and 3.18 µM, respectively.

On to `Cc1cc(C2=CC[C@H]3[C@@H]4CCc5cc(NC(=O)CCC(=O)O)ccc5[C@H]4CC[C@]23C)cnn1` [Example 45, 4-{[17-(6-methylpyridazin-4-yl)estra-1(10),2,4,16-tetraen-3-yl]amino}-4-oxobutanoic acid], for which the IC50 at AKR1C3 [1] worked out at 0.0018 µM; at AKR1C3 [2], 0.98 µM.

Consider `C[C@]12CC[C@@H]3c4ccc(NS(=O)(=O)CCC(=O)O)cc4CC[C@H]3[C@@H]1CC=C2c1cncc(F)c1` [Example 39, 3-{[17-(5-fluoropyridin-3-yl)estra-1(10),2,4,16-tetraen-3-yl]sulfamoyl}propanoic acid], for which the IC50 on AKR1C3 [1] amounted to 0.003 µM; on AKR1C3 [2], 5.1 µM.

For `C[C@]12CC[C@@H]3c4ccc(S(=O)(=O)CCCCO)cc4CC[C@H]3[C@@H]1CC=C2c1cncc(F)c1` [Example 21, 4-{[17-(5-fluoropyridin-3-yl)estra-1(10),2,4,16-tetraen-3-yl]sulfonyl}butan-1-ol], the values for the half-inhibitory concentration (IC50) at AKR1C3 [1] and on AKR1C3 [2] were 0.0053 µM and 0.04 µM, respectively.

On to `C[C@]12CC[C@@H]3c4ccc(S(C)(=N)=O)cc4CC[C@H]3[C@@H]1CC=C2c1cncc(F)c1` (some centres unmarked) [Example 46, 17-(5-fluoropyridin-3-yl)-3-(S-methylsulfonimidoyl)estra-1(10),2,4,16-tetraene], for which the values for the IC50 against AKR1C3 [1] and on AKR1C3 [2] were 0.0022 µM and 0.03 µM, respectively.

Turning to `C[C@]12CC[C@@H]3c4ccc(S(=O)(=O)CCCC(=O)O)cc4CC[C@H]3[C@@H]1CC=C2c1cncc(Cl)c1` [Example 19, 4-{[17-(5-chloropyridin-3-yl)estra-1,3,5(10),16-tetraen-3-yl]sulfonyl}butanoic acid], the IC50 was 0.0017 µM on AKR1C3 [1] and 0.15 µM at AKR1C3 [2].

For `Cc1cc(C2=CC[C@H]3[C@@H]4CCc5cc(S(=O)(=O)N(C)CCC(=O)O)ccc5[C@H]4CC[C@]23C)cnn1` [Example 07, N-methyl-N-{[17-(6-methylpyridazin-4-yl)estra-1(10),2,4,16-tetraen-3-yl]sulfonyl}-beta-alanine], the figures for the IC50 against AKR1C3 [1] and at AKR1C3 [2] were 0.0005 µM and 0.8 µM, respectively.

For the compound `C[C@]12CC[C@@H]3c4ccc(NC(=O)CCC(N)=O)cc4CC[C@H]3[C@@H]1CC=C2c1cncc(F)c1` [Example 26, N-[17-(5-fluoropyridin-3-yl)estra-1(10),2,4,16-tetraen-3-yl]butanediamide], the values for the IC50 on AKR1C3 [1] and at AKR1C3 [2] were 0.0086 µM and 0.15 µM, respectively.

With `CN(CCC(=O)O)S(=O)(=O)c1ccc2c(c1)CC[C@@H]1[C@@H]2CC[C@]2(C)C(c3cncc(F)c3)=CC[C@@H]12` [Example 02, N-{[17-(5-fluoropyridin-3-yl)estra-1(10),2,4,16-tetraen-3-yl]sulfonyl}-N-methyl-beta-alanine], the IC50 was 0.0035 µM against AKR1C3 [1] and 0.38 µM at AKR1C3 [2].

Turning to `CC(=O)Nc1ccc2c(c1)CC[C@@H]1[C@@H]2CC[C@]2(C)C(c3cncc(F)c3)=CC[C@@H]12` [Example 40, N-[17-(5-fluoropyridin-3-yl)estra-1(10),2,4,16-tetraen-3-yl]acetamide], the IC50 on AKR1C3 [1] was 0.0053 µM; on AKR1C3 [2] it was 0.1 µM.

`CN(c1ccc2c(c1)CC[C@@H]1[C@@H]2CC[C@]2(C)C(c3cncc(F)c3)=CC[C@@H]12)S(=O)(=O)CCC(=O)O` [Example 38, 3-{[17-(5-fluoropyridin-3-yl)estra-1(10),2,4,16-tetraen-3-yl](methyl)sulfamoyl}propanoic acid]: the results for the IC50 on AKR1C3 [1] and on AKR1C3 [2] were 0.0049 µM and 0.86 µM, respectively.
